Data reported in US11191769B2, “Fused thiophene compounds” (BioTheryX, Inc., priority 2018, dated 2021).

Key:
Assay type in all cases: cell-based
IKAROS = target: T1, IKAROS (Homo sapiens, UniProt Q13422+Q96SW2); assay: IKAROS degradation assay (Western blot, MV-4-11 cells); details: 6-8 hours; for IKAROS % degradation at 1 µM: MV4-11, 1 μM
T1 construct: endogenous in cells; host or cells: MV-4-11
Method: (§1) MV-4-11 cells were grown in RPMI 1640 media supplemented with 10% fetal bovine serum, streptomycin and penicillin.
(§2) Cells were cultured at approximately 10^6 cells per mL and incubated in DMSO or the indicated compound for 6-8 hours. Whole cell extracts were prepared using RIPA buffer according to manufacturer's protocol (Pierce). Briefly, 3×10^6 cells were washed once in PBS, the cell pellets were resuspended in RIPA buffer and allowed to incubate for 15 minutes on ice. Cells debris was removed by centrifugation and the cleared whole cell lysates were transferred to new tubes for further analysis.
(§3) For Western blot analysis, whole cell protein extracts were separated on 4-12% SDS-polyacrylamide gels, transferred to nitrocellulose and probed with the indicated primary antibodies. Membranes were subsequently washed and probed with the appropriate IRDye secondary antibodies (LI-COR). The signal was detected using the Odyssey Imaging System (LI-COR).
(§4) The following antibodies were used in these studies: Anti-eRF3/GSPT1: Abcam, ab126090 (Cambridge, Mass.); Anti-Ikaros: Abcam, ab191394 (Cambridge, Mass.); Anti-CK1α: Abcam, ab108296 (Cambridge, Mass.); β-actin (8H10D10) mouse monoclonal antibody: Cell Signaling Technology, #3700 (Danvers, Mass.); IRDye 680RD Goat anti-rabbit antibody: LI-COR, 926-68071 (Lincoln, Nebr.); IRDye 800CW Goat anti-mouse antibody: LI-COR, 926-32210 (Lincoln, Nebr.).
(§5) In each of Tables 1-4, the % degradation values are reported as “A”, “B”, “C”, or “D”. “A” represents a % degradation value of less than 25% (value<25%). “B” represents a % degradation value of equal to or more than 25% and less than 50% (25%≤value<50%). “C” represents a % degradation value of equal to or more than 50% and less than 75% (50%≤value <75%). “D” represents a % degradation value of equal to or more than 75% (value≥75%).

IL-1β = IL-1β inhibition assay, LPS-induced PBMCs or CD14+ monocytes, Meso Scale; details: 1 h pretreatment, 100 ng/mL LPS 18-24 h, supernatant, read-out: I1-1β % Inhibition at 10 μM
Method: (§6) Either frozen primary blood mononuclear cells (PBMCs) or frozen CD14+ mobilized peripheral blood monocytes were purchased from AllCells (PB003F, Normal Peripheral Blood MNC (Alameda, Calif.)). Cells were quick thawed, washed 1-time with RPMI-1640 (10% FBS/1% Pen-Strep) and plated in 96 well plates at 200,000 cells per well. Cells were pretreated with DMSO only or with the indicated compound for 1 h and then induced with 100 ng/mL lipopolysaccharide (LPS) for 18-24 h. The supernatant was analyzed for IL-1β, IL-6, and TNFα, using Meso Scale assay according to manufacturer's protocol. The negative control wells were treated with DMSO.
(§7) In each of Tables 5-7, the % inhibition values are reported as “A”, “B”, “C”, or “D”. “A” represents a % inhibition value of less than 50% (value <50%). “B” represents a % inhibition value of equal to or more than 50% and less than 70% (50%≤value<70%). “C” represents a % inhibition value of equal to or more than 70% and less than 90% (70%≤value<90%). “D” represents a % inhibition value of equal or more than 90% (value≥90%). In Table 8, the fold-change values are reported as “A”, “B”, “C”, or “D”. “A” represents a fold-change value of equal to or less than 1 (value≤1). “B” represents a fold-change value of more than 1 and equal to or less than 2 (1<value≤2). “C” represents a fold-change value of more than 2 and equal to or less than 3 (2<value≤3). “D” represents a fold-change value of more than 3 (value>3).

IL-2 = IL-2 fold-change assay, anti-CD3 stimulated PBMCs, Mesoscale; details: PBMC, PBMCs on anti-human CD3 (OKT3) coated plates, 24 h, fold difference from the DMSO control
Method: For the IL-2 analysis, 96 well plates were precoated with 1 μg/mL anti-human CD3 antibody (OKT3, eBioscience Inc., San Diego, Calif.). After washing with PBS, the indicated compound was added (50 μL/well) followed by PBMCs diluted at 3-4 million cells/mL (150 μL/well). Plates were incubated for 24 h and the supernatants collected for Mesoscale IL-2 analysis. IL-2 activity is measured as fold difference from the DMSO control.
as §7

TNFα = assay: TNF-α inhibition assay, LPS-induced PBMCs or CD14+ monocytes, Meso Scale; details: 1 h pretreatment, 100 ng/mL LPS 18-24 h, supernatant
Method: as §6, §7

MOLM-13 cells = assay: MOLM-13 cell viability assay (CellTiter-Glo); details: Homo sapiens, MOLM-13, 72 h, 3 days, % of DMSO control
Method: MOLM-13 cells were cultured in RPMI 1640 media supplemented with 10% fetal bovine serum, streptomycin and penicillin, and were plated in white walled 96-well plates at 2500 cells/well. Cells were incubated in DMSO (control) or the indicated compound for 3 days at 37° C. and 5% CO2. Following the incubation period, 100 μL of CellTiterGlow (CTG) reagent (CellTiter-Glo® Luminescent Cell Viability Assay, Promega (Madison, Wis.)) was added to each well. Following a 10 minutes incubation with shaking, luminescence was measured using the EnVision Multimode plate reader.
The MOLM-13 cell viability values as % DMSO are reported as “A”, “B”, “C”, or “D”. “A” represents a % viability value of less than 25% (value<25%). “B” represents a % viability value of equal to or more than 25% and less than 50% (25%≤value<50%). “C” represents a % viability value of equal to or more than 50% and less than 75% (50%≤value<75%). “D” represents a % viability value of equal or more than 75% (value≥75%).

IL-6 = IL-6 inhibition assay, LPS-induced PBMCs or CD14+ monocytes, Meso Scale; details: 1 h pretreatment, 100 ng/mL LPS 18-24 h, supernatant
Method: as §6, §7

CK1α = target: T2, CK1α (Homo sapiens, UniProt P48729+Q96SW2); assay: CK1α degradation assay (Western blot, MV-4-11 cells); details: MV4-11, 6-8 hours
T2 construct: Whole cell extracts were prepared using RIPA buffer; endogenous in cells; host or cells: MV-4-11
T2 sequence (P48729 whole entry): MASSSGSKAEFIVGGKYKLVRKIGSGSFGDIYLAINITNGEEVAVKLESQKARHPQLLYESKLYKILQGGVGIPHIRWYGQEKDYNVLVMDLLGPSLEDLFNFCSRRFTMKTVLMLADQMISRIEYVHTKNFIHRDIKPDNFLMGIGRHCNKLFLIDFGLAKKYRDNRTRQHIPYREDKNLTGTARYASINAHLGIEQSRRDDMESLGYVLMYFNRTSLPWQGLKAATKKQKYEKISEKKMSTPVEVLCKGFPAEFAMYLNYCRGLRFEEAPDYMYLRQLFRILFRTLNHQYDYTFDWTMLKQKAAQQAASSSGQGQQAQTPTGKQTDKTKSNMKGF
T2 sequence (Q96SW2 whole entry): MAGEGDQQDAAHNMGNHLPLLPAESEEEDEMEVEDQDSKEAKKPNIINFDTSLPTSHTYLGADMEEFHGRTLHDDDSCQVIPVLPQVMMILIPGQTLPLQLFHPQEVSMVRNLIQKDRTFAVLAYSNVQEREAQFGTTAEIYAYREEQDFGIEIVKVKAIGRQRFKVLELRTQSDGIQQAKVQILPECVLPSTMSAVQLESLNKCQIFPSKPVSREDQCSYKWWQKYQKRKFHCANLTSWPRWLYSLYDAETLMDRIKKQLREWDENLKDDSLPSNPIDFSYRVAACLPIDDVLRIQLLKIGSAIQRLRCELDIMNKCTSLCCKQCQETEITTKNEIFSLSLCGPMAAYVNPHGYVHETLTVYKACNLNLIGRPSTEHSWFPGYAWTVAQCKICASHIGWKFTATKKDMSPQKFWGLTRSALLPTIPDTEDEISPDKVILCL
T2 sequence (Q16531 whole entry partner): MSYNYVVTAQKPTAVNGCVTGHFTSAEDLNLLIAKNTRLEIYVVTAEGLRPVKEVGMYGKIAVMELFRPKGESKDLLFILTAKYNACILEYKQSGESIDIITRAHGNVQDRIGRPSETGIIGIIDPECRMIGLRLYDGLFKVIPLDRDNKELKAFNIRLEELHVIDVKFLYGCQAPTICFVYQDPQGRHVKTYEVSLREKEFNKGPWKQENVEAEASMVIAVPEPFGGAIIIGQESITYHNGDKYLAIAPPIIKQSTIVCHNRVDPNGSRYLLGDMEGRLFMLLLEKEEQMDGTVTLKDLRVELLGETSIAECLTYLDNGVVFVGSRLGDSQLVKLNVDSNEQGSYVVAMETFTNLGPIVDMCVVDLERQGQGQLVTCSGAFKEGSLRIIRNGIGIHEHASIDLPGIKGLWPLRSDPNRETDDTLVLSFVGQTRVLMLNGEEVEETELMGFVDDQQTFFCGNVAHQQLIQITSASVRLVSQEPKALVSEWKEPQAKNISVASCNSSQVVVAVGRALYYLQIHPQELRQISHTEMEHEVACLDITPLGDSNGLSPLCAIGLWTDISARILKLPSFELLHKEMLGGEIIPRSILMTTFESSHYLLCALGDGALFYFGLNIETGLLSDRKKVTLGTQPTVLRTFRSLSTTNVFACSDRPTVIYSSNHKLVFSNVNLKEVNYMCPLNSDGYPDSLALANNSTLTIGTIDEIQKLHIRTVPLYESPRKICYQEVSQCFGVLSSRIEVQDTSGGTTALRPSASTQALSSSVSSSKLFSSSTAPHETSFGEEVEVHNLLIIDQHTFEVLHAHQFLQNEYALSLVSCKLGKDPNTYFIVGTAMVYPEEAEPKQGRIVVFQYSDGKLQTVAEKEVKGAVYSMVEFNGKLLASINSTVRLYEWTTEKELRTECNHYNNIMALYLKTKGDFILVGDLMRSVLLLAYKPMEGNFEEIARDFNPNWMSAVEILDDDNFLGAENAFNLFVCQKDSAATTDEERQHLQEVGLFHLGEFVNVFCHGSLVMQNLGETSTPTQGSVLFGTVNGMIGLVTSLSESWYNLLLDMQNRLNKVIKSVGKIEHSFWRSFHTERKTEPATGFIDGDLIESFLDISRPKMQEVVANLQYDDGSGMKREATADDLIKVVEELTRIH
Method: as §1, §2, §3, §4, §5

T1 sequence (Q13422 whole entry): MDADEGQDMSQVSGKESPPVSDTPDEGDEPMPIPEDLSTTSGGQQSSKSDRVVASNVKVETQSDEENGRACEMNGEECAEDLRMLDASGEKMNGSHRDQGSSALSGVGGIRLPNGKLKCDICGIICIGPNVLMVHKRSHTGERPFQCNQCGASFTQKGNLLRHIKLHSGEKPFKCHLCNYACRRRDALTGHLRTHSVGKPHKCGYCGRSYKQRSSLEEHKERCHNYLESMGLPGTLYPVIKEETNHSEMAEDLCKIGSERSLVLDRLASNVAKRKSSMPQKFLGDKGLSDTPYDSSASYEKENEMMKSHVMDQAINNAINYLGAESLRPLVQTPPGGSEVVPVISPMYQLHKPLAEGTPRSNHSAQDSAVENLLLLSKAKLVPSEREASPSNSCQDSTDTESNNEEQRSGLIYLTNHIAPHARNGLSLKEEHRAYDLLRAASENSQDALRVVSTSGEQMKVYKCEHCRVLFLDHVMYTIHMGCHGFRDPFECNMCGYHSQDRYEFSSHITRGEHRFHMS
T1 sequence (Q96SW2 whole entry): as the sequence (Q96SW2 whole entry) above
T1 sequence (Q16531 whole entry partner): as the sequence (Q16531 whole entry partner) above

IKAROS % degradation at 1 µM (IKAROS) [%]	percent degradation at 1 µM (CK1α) [%]	Compound	inhibition at 10 µM (IL-1β) [%]	fold induction at 10 µM (IL-2)	inhibition at 10 µM (TNFα) [%]	IKAROS % Degradation at 10 μM (IKAROS)	viability at 10 µM (MOLM-13 cells) [%]	inhibition at 10 µM (IL-6) [%]
50 to 75		O=C1CC[C@H](N2Cc3c(csc3COc3cccc(CN4CCOCC4)c3)C2=O)C(=O)N1 [Compound 7, (S)-3-(1-((3-(morpholinomethyl)phenoxy)methyl)-4-oxo-4H-thieno[3,4-c]pyrrol-5(6H)-yl)piperidine-2,6-dione]	70 to 90	2 to 3	70 to 90			
		O=C1CC[C@H](N2Cc3c(NCc4ccc(CN5CCOCC5)cc4)csc3C2=O)C(=O)N1 [Compound 3, (S)-3-(3-((4-(morpholinomethyl)benzyl)amino)-6-oxo-4H-thieno[2,3-c]pyrrol-5(6H)-yl)piperidine-2,6-dione]		≤ 1	< 50	C (“C” represents a % degradation value of equal to or more than 50% and less than 75% (50%≤value <75%))		
		O=C1CC[C@H](N2Cc3cc(COc4ccc(CN5CCOCC5)cc4)sc3C2=O)C(=O)N1 [Compound 16, (S)-3-(2-((4-(morpholinomethyl)phenoxy)methyl)-6-oxo-4H-thieno[2,3-c]pyrrol-5(6H)-yl)piperidine-2,6-dione]		≤ 1	< 50	A (“A” represents a % degradation value of less than 25% (value<25%))		
		O=C1CC[C@H](N2C(=O)c3csc(COc4ccc(CN5CCOCC5)cc4)c3C2=O)C(=O)N1 [Compound 20, (S)-5-(2,6-dioxopiperidin-3-yl)-1-((4-(morpholinomethyl)phenoxy)methyl)-4H-thieno[3,4-c]pyrrole-4,6(5H)-dione]	50 to 70	1 to 2	50 to 70	B (“B” represents a % degradation value of equal to or more than 25% and less than 50% (25%≤value<50%))	< 25	
25 to 50		O=C1CC[C@H](N2Cc3c(csc3COc3ccc(CN4CCOCC4)cc3F)C2=O)C(=O)N1 [Compound 8, (S)-3-(1-((2-fluoro-4-(morpholinomethyl)phenoxy)methyl)-4-oxo-4H-thieno[3,4-c]pyrrol-5(6H)-yl)piperidine-2,6-dione]	> 90	2 to 3	> 90			70 to 90
25 to 50	50 to 75	O=C1CC[C@H](N2Cc3c(csc3COc3ccc(CN4CCCC4)cc3)C2=O)C(=O)N1 [Compound 13, (S)-3-(4-oxo-1-((4-(pyrrolidin-1-ylmethyl)phenoxy)methyl)-4H-thieno[3,4-c]pyrrol-5(6H)-yl)piperidine-2,6-dione]	> 90	2 to 3	> 90		50 to 75	50 to 70
25 to 50	25 to 50	O=C1CC[C@H](N2Cc3c(csc3COc3ccc(CCN4CCOCC4)cc3)C2=O)C(=O)N1 [Compound 15, (S)-3-(1-((4-(2-morpholinoethyl)phenoxy)methyl)-4-oxo-4H-thieno[3,4-c]pyrrol-5(6H)-yl)piperidine-2,6-dione]	> 90	> 3	70 to 90			50 to 70
25 to 50		O=C1CC[C@H](N2Cc3c(csc3CCc3ccc(CN4CCOCC4)cc3)C2=O)C(=O)N1 [Compound 6, (S)-3-(1-(4-(morpholinomethyl)phenethyl)-4-oxo-4H-thieno[3,4-c]pyrrol-5(6H)-yl)piperidine-2,6-dione]	70 to 90	2 to 3	70 to 90			< 50
		O=C1CC[C@H](N2Cc3c(csc3CNc3ccc(CN4CCOCC4)cc3)C2=O)C(=O)N1 [Compound 10, (S)-3-(1-(((4-(morpholinomethyl)phenyl)amino)methyl)-4-oxo-4H-thieno[3,4-c]pyrrol-5(6H)-yl)piperidine-2,6-dione]	70 to 90	2 to 3	> 90		25 to 50	< 50
		O=C1CC[C@H](N2Cc3c(csc3COCc3ccc(CN4CCOCC4)cc3)C2=O)C(=O)N1 [Compound 9, (S)-3-(1-(((4-(morpholinomethyl)benzyl)oxy)methyl)-4-oxo-4H-thieno[3,4-c]pyrrol-5(6H)-yl)piperidine-2,6-dione]	70 to 90	> 3	> 90			< 50
		O=C1CC[C@H](N2Cc3c(COc4ccc(CN5CCOCC5)cc4)csc3C2=O)C(=O)N1 [Compound 5, (S)-3-(3-((4-(morpholinomethyl)phenoxy)methyl)-6-oxo-4H-thieno[2,3-c]pyrrol-5(6H)-yl)piperidine-2,6-dione]		1 to 2				
		O=C1CC[C@H](N2Cc3c(CNc4ccc(CN5CCOCC5)cc4)csc3C2=O)C(=O)N1 [Compound 11, (S)-3-(3-(((4-(morpholinomethyl)phenyl)amino)methyl)-6-oxo-4H-thieno[2,3-c]pyrrol-5(6H)-yl)piperidine-2,6-dione]		1 to 2	< 50		< 25	
	≥ 75	CN(C)Cc1ccc(OCc2scc3c2CN([C@H]2CCC(=O)NC2=O)C3=O)cc1 [Compound 18, (S)-3-(1-((4-((dimethylamino)methyl)phenoxy)methyl)-4-oxo-4H-thieno[3,4-c]pyrrol-5(6H)-yl)piperidine-2,6-dione]	50 to 70	2 to 3	70 to 90	C (“C” represents a % degradation value of equal to or more than 50% and less than 75% (50%≤value <75%))	< 25	
		O=C1CC[C@H](N2Cc3c(csc3COc3ccc(CN4CCOCC4)cn3)C2=O)C(=O)N1 [Compound 12, (S)-3-(1-(((5-(morpholinomethyl)pyridin-2-yl)oxy)methyl)-4-oxo-4H-thieno[3,4-c]pyrrol-5(6H)-yl)piperidine-2,6-dione]		1 to 2	< 50			
